According to patent US20200264182A1, “METHOD FOR DETECTING PROSTATE CANCER” (J-OIL MILLS, INC., priority 2017, published 2020):
Blank lines part the entries; values can stand above or below the substance they belong to.

Key:
[1] = FAC binding constant; settings: at 25° C.
Protocol: (§1) Details of the FAC method are described in Patent Document 2 filed by some of the present applicants, for example.
(§2) Binding constants (at 25° C.) of PhoSL, SRL, NSL and LSL belonging to the fucose α1→6 specific lectin for various sugar chains are shown in Tables 2 to 5.

[2] = FAC binding constant (Table 5 entry); settings: Table 5: sugar chain having no fucose; at 25° C.
Protocol: as §1, §2

[3] = tested on: serum fucosylated PSA; experiment: Sandwich ELISA, anti-PSA antibody and biotin-labeled lectin; type: binding, human; settings: for Δ (=A − B): reaction value of Prostate cancer 4 minus Healthy 1; for lectin reaction value B of Healthy 1: serum of Healthy 1; for lectin reaction value A of Prostate cancer 4: serum of Prostate cancer 4, GS 6 (3 + 3)
Protocol: The anti-PSA antibody from which sugar chains had been removed was diluted to 5 μg/mL with PBS. 25 μL of this diluted solution was added to each well of an ELISA plate and allowed to stand at 37° C. for 12 hours, and then the additive solution was discarded.
150 μL of PBS containing 0.05% Tween 20 (product name: polyoxyethylene sorbitan monolaurate, from Nacalai Tesque, Inc.) was added to each well, and then the additive solution was discarded. This manipulation was repeated three times in total.
25 μL of 1% BSA/PBS was added to each well and allowed to stand at 37° C. for 1 hour, and then the additive solution was discarded.
150 μL of PBS containing 0.05% Tween 20 was added to each well, and then the additive solution was discarded. This manipulation was repeated three times in total.
To graph a calibration curve, 25 μL of the fucosylated PSA reference standard diluted with 1% BSA/PBS to a concentration of 0 to 200 ng/mL was added to each well and allowed to stand at room temperature for 1 hour, and then the additive solution was discarded. In addition, to detect the fucosylated PSA in the serum of the subject by the lectin, 25 μL of serum of “Healthy 1” and “Prostate cancer 4” 2-fold diluted with PBS was added to each well and allowed to stand at room temperature for 1 hour, and then the additive solution was discarded.
In Reference Example 1, 25 μL of a biotin-labeled PhoSL diluted to 0.1 μg/mL with 0.1% BSA/PBS (pH 7.4) was added to each well and allowed to stand at 4° C. for 30 minutes, and then the additive solution was discarded. In Example 1, 25 μL of a biotin-labeled PhoSL diluted to 0.1 μg/mL with 0.1% BSA/10-fold diluted PBS+glycine-NaOH (pH 9.6) was added to each well and allowed to stand at 4° C. for 30 minutes, and then the additive solution was discarded.
25 μL of a horseradish peroxidase (HRP)-labeled streptavidin solution (from Vector Laboratories, Inc., concentration: 0.4 μg/mL, in 1% BSA/PBS) was added to each well and allowed to stand at room temperature for 30 minutes, and then the additive solution was discarded.
25 μL of chromogenic substrate for HRP (product name: TMB, from Kirkegaard & Perry Laboratories, Inc.) was added to each well and allowed to stand at room temperature for 10 minutes.
25 μL of 1M phosphoric acid was added to terminate the reaction.
Absorbance (Ab) at 450 nm and 630 nm was measured using a plate reader, and a measurement (Ab450-630) was obtained.
A calibration curve was graphed by plotting signals (reaction values, Ab450-630) of the fucosylated PSA reference standard with the biotin-labeled PhoSL. A Signal (Ab450-630) of the biotin-labeled PhoSL corresponding to the fucosylated PSA concentration of 10 ng/mL was defined as 10 U/mL.
The signals of biotin-labeled PhoSL (Ab450-630) for the serum fucosylated PSA in the subject samples A were assigned to the calibration curve to calculate reaction values (unit: U/mL).
The PhoSL reaction values for the subject samples A were measured by the same operation as in Example 1. From the PhoSL reaction values, an average value and a median value were determined. Furthermore, a standard cutoff value (89.7 U/mL) was used to determine a detection rate (positive rate) of the prostate cancer patients, and a false detection rate (false positive rate) of the healthy persons.
Comparative Example 2 in Table 9 indicates results of detecting the serum fucosylated PSA using AAL (AAL reaction values) in the subject samples A. Specifically, in Reference Example 1, AAL reaction values were measured in the same manner as in Reference Example 1 except that the biotin-labeled PhoSL was replaced with a biotin-labeled AAL. A standard cut-off value for the AAL reaction values was 894.8 U/mL. As in Example 2, an average value, a median value, a positive rate and a false positive rate were determined from the AAL reaction values.

[4] = sugar chain having fucose other than α1→6 fucose

Binding constant for sugar chain No. 728 ([1]; Table 3: sugar chain having fucose other than α1→6 fucose): <1000 M⁻¹
Binding constant for sugar chain No. 419 [1, 4]: <1000 M⁻¹
Binding constant for sugar chain No. 420 [1, 4]: <1000 M⁻¹
Binding constant for sugar chain No. 718 [1, 4]: <1000 M⁻¹
Binding constant for sugar chain No. 719 [1, 4]: <1000 M⁻¹
Binding constant for sugar chain No. 720 [1, 4]: <1000 M⁻¹
Binding constant for sugar chain No. 721 [1, 4]: <1000 M⁻¹
Binding constant for sugar chain No. 722 [1, 4]: <1000 M⁻¹
Binding constant for sugar chain No. 723 [1, 4]: <1000 M⁻¹
Binding constant for sugar chain No. 726 [1, 4]: <1000 M⁻¹
Binding constant for sugar chain No. 727 [1, 4]: <1000 M⁻¹
Binding constant for sugar chain No. 729 [1, 4]: <1000 M⁻¹
Binding constant for sugar chain No. 730 [1, 4]: <1000 M⁻¹
Binding constant for sugar chain No. 731 [1, 4]: <1000 M⁻¹
Binding constant for sugar chain No. 739 [1, 4]: <1000 M⁻¹
Binding constant for sugar chain No. 909 [1, 4]: <1000 M⁻¹
Binding constant for sugar chain No. 910 [1, 4]: <1000 M⁻¹
Binding constant for sugar chain No. 931 [1, 4]: <1000 M⁻¹
Binding constant for sugar chain No. 932 [1, 4]: <1000 M⁻¹
Binding constant for sugar chain No. 933 [1, 4]: <1000 M⁻¹
Binding constant for sugar chain No. 001 ([1]; sugar chain having no fucose): <1000 M⁻¹
Binding constant for sugar chain No. 002 ([1]; sugar chain having no fucose): <1000 M⁻¹
Binding constant for sugar chain No. 003 ([1]; sugar chain having no fucose): <1000 M⁻¹
Binding constant for sugar chain No. 004 ([1]; sugar chain having no fucose): <1000 M⁻¹
Binding constant for sugar chain No. 005 ([1]; sugar chain having no fucose): <1000 M⁻¹
Binding constant for sugar chain No. 006 ([1]; sugar chain having no fucose): <1000 M⁻¹
Binding constant for sugar chain No. 007 ([1]; sugar chain having no fucose): <1000 M⁻¹
Binding constant for sugar chain No. 008 ([1]; sugar chain having no fucose): <1000 M⁻¹
Binding constant for sugar chain No. 009 ([1]; sugar chain having no fucose): <1000 M⁻¹
Binding constant for sugar chain No. 010 ([1]; sugar chain having no fucose): <1000 M⁻¹
Binding constant for sugar chain No. 011 ([1]; sugar chain having no fucose): <1000 M⁻¹
Binding constant for sugar chain No. 012 ([1]; sugar chain having no fucose): <1000 M⁻¹
Binding constant for sugar chain No. 013 ([1]; sugar chain having no fucose): <1000 M⁻¹
Binding constant for sugar chain No. 014 ([1]; sugar chain having no fucose): <1000 M⁻¹
Binding constant for sugar chain No. 101 ([1]; sugar chain having no fucose): <1000 M⁻¹
Binding constant for sugar chain No. 103 ([1]; sugar chain having no fucose): <1000 M⁻¹
Binding constant for sugar chain No. 104 ([1]; sugar chain having no fucose): <1000 M⁻¹
Binding constant for sugar chain No. 105 ([1]; sugar chain having no fucose): <1000 M⁻¹
Binding constant for sugar chain No. 107 ([1]; sugar chain having no fucose): <1000 M⁻¹
Binding constant for sugar chain No. 108 ([1]; sugar chain having no fucose): <1000 M⁻¹
Binding constant for sugar chain No. 301 ([1]; sugar chain having no fucose): <1000 M⁻¹
Binding constant for sugar chain No. 304 ([1]; sugar chain having no fucose): <1000 M⁻¹
Binding constant for sugar chain No. 305 ([1]; sugar chain having no fucose): <1000 M⁻¹
Binding constant for sugar chain No. 307 ([1]; sugar chain having no fucose): <1000 M⁻¹
Binding constant for sugar chain No. 308 ([1]; sugar chain having no fucose): <1000 M⁻¹
Binding constant for sugar chain No. 313 ([1]; sugar chain having no fucose): <1000 M⁻¹
Binding constant for sugar chain No. 314 ([1]; sugar chain having no fucose): <1000 M⁻¹
Binding constant for sugar chain No. 323 ([1]; sugar chain having no fucose): <1000 M⁻¹
Binding constant for sugar chain No. 501 ([1]; sugar chain having no fucose): <1000 M⁻¹
Binding constant for sugar chain No. 502 ([1]; sugar chain having no fucose): <1000 M⁻¹
Binding constant for sugar chain No. 503 ([1]; sugar chain having no fucose): <1000 M⁻¹
Binding constant for sugar chain No. 504 ([1]; sugar chain having no fucose): <1000 M⁻¹
Binding constant for sugar chain No. 701 ([1]; sugar chain having no fucose): <1000 M⁻¹
Binding constant for sugar chain No. 702 ([1]; sugar chain having no fucose): <1000 M⁻¹
Binding constant for sugar chain No. 703 ([1]; sugar chain having no fucose): <1000 M⁻¹
Binding constant for sugar chain No. 704 ([1]; sugar chain having no fucose): <1000 M⁻¹
Binding constant for sugar chain No. 705 ([1]; sugar chain having no fucose): <1000 M⁻¹
Binding constant for sugar chain No. 706 ([1]; sugar chain having no fucose): <1000 M⁻¹
Binding constant for sugar chain No. 707 ([1]; sugar chain having no fucose): <1000 M⁻¹
Binding constant for sugar chain No. 708 ([1]; sugar chain having no fucose): <1000 M⁻¹
Binding constant for sugar chain No. 709 ([1]; sugar chain having no fucose): <1000 M⁻¹
Binding constant for sugar chain No. 710 ([1]; sugar chain having no fucose): <1000 M⁻¹
Binding constant for sugar chain No. 711 ([1]; sugar chain having no fucose): <1000 M⁻¹
Binding constant for sugar chain No. 712 ([1]; sugar chain having no fucose): <1000 M⁻¹
Binding constant for sugar chain No. 713 ([1]; sugar chain having no fucose): <1000 M⁻¹
Binding constant for sugar chain No. 715 ([1]; sugar chain having no fucose): <1000 M⁻¹
Binding constant for sugar chain No. 716 ([1]; sugar chain having no fucose): <1000 M⁻¹
Binding constant for sugar chain No. 717 ([1]; sugar chain having no fucose): <1000 M⁻¹
Binding constant for sugar chain No. 724 ([1]; sugar chain having no fucose): <1000 M⁻¹
Binding constant for sugar chain No. 725 ([1]; sugar chain having no fucose): <1000 M⁻¹
Binding constant for sugar chain No. 732 ([1]; sugar chain having no fucose): <1000 M⁻¹
Binding constant for sugar chain No. 733 ([1]; sugar chain having no fucose): <1000 M⁻¹
Binding constant for sugar chain No. 734 ([1]; sugar chain having no fucose): <1000 M⁻¹
Binding constant for sugar chain No. 735 ([1]; sugar chain having no fucose): <1000 M⁻¹
Binding constant for sugar chain No. 736 ([1]; sugar chain having no fucose): <1000 M⁻¹
Binding constant for sugar chain No. 737 ([1]; sugar chain having no fucose): <1000 M⁻¹
Binding constant for sugar chain No. 738 ([1]; sugar chain having no fucose): <1000 M⁻¹
Binding constant for sugar chain No. 901 ([1]; sugar chain having no fucose): <1000 M⁻¹
Binding constant for sugar chain No. 902 ([1]; sugar chain having no fucose): <1000 M⁻¹
Binding constant for sugar chain No. 903 ([1]; sugar chain having no fucose): <1000 M⁻¹
Binding constant for sugar chain No. 905 ([1]; sugar chain having no fucose): <1000 M⁻¹
Binding constant for sugar chain No. 906 ([1]; sugar chain having no fucose): <1000 M⁻¹
Binding constant for sugar chain No. 907 ([1]; sugar chain having no fucose): <1000 M⁻¹
Binding constant for sugar chain No. 015 ([1]; sugar chain having α1→6 fucose): 190000 M⁻¹
Binding constant for sugar chain No. 201 ([1]; sugar chain having α1→6 fucose): 230000 M⁻¹
Binding constant for sugar chain No. 202 ([1]; sugar chain having α1→6 fucose): 230000 M⁻¹
Binding constant for sugar chain No. 203 ([1]; sugar chain having α1→6 fucose): 200000 M⁻¹
Binding constant for sugar chain No. 401 ([1]; sugar chain having α1→6 fucose): 350000 M⁻¹
Binding constant for sugar chain No. 402 ([1]; sugar chain having α1→6 fucose): 200000 M⁻¹
Binding constant for sugar chain No. 403 ([1]; sugar chain having α1→6 fucose): 340000 M⁻¹
Binding constant for sugar chain No. 404 ([1]; sugar chain having α1→6 fucose): 390000 M⁻¹
Binding constant for sugar chain No. 405 ([1]; sugar chain having α1→6 fucose): 320000 M⁻¹
Binding constant for sugar chain No. 406 ([1]; sugar chain having α1→6 fucose): 220000 M⁻¹
Binding constant for sugar chain No. 407 ([1]; sugar chain having α1→6 fucose): 280000 M⁻¹
Binding constant for sugar chain No. 410 ([1]; sugar chain having α1→6 fucose): 220000 M⁻¹
Binding constant for sugar chain No. 413 ([1]; sugar chain having α1→6 fucose): 280000 M⁻¹
Binding constant for sugar chain No. 418 ([1]; sugar chain having α1→6 fucose): 220000 M⁻¹
Binding constant for sugar chain No. 601 ([1]; sugar chain having α1→6 fucose): 240000 M⁻¹
Binding constant for sugar chain No. 602 ([1]; sugar chain having α1→6 fucose): 120000 M⁻¹
Binding constant for sugar chain No. 728 [2]: <1000 M⁻¹
Substance: LSL: fucose α1→6 specific lectin that can be extracted from Lepista sordida, SEQ ID No. 3

Substance: PhoSL peptide: synthesized Pholiota squarrosa lectin peptide, SEQ ID No. 6 (Lys substitutions at 1, 20, 39; 40th Gly deleted) (KPVPVTKLVCDGDTYKCTAKLDFGDGRWVAQWDTNVFHK; Modification of SEQ ID(1) in which Ala at position 1, Tyr at position 20 and Thr at position 39 are substituted with Lys, and Gly at position 40 is deleted.)
Δ (=A − B) ([3]; pH in lectin reaction 7.4): 100.5 U/mL
Δ (=A − B) ([3]; pH in lectin reaction 9.6): 234.4 U/mL
lectin reaction value B of Healthy 1 ([3]; pH in lectin reaction 7.4): 1.0 U/mL
lectin reaction value B of Healthy 1 ([3]; pH in lectin reaction 9.6): Below detection limit
lectin reaction value A of Prostate cancer 4 ([3]; pH in lectin reaction 7.4): 101.5 U/mL
lectin reaction value A of Prostate cancer 4 ([3]; pH in lectin reaction 9.6): 234.4 U/mL
